Target: Histone deacetylase 2 (Homo sapiens, UniProt Q92769)
Assay: Inhibition of full-length recombinant human C-terminal GST tagged HDAC2 expressed in Sf9 insect cells using aminoluciferin peptide substrate at 100 nM preincubated for 3 hrs followed by substrate addition and measured after 30 mins by HDAC-Glo I/II chemiluminescence assay
Conditions: time 3.5 hrs

Histone deacetylase 2, sequence (Q92769 whole entry): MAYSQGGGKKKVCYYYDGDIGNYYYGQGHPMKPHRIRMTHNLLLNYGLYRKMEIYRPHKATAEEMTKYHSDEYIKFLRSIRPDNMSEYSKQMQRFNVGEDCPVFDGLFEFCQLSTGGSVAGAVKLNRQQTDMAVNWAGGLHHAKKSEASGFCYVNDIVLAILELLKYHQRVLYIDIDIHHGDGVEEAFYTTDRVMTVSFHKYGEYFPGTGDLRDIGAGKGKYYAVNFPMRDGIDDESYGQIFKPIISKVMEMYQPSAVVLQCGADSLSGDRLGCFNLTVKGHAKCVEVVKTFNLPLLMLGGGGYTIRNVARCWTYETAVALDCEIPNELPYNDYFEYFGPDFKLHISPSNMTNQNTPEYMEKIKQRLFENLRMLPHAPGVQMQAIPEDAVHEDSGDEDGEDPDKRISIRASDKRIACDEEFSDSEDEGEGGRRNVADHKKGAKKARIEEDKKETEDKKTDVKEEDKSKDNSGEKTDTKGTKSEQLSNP

| Structure (SMILES) | inhibition [%] |
| --- | --- |
| Nc1ccc(-c2ccsc2)cc1NC(=O)CCc1cn(-c2ccc(I)cc2)nn1 | 0 |
| Nc1ccc(-c2ccsc2)cc1NC(=O)CCc1cn(CCc2cccc(C(F)(F)F)c2)nn1 | 2 |
| Nc1ccc(-n2cc(CCC(=O)Nc3cc(-c4cccnc4)ccc3N)nn2)cc1 | 5 |
| Nc1ccc(-c2cccs2)cc1NC(=O)c1cccc(-c2cn(CC(=O)Nc3ccc(F)cc3)nn2)c1 | 0 |
| COc1ccc(-n2cc(C(=O)Nc3cc(-c4ccsc4)ccc3N)nn2)cc1 | 22 |
| Cc1ccc(CCn2cc(CCC(=O)Nc3cc(-c4cccnc4)ccc3N)nn2)cc1 | 18 |
| Nc1ccc(-c2cccs2)cc1NC(=O)CCc1cn(-c2ccc(Br)cc2)nn1 | 11 |
| Nc1ccc(-c2cccs2)cc1NC(=O)c1ccc(-c2cn(CCc3ccccc3[N+](=O)[O-])nn2)s1 | 16 |
| Nc1ccc(-c2ccsc2)cc1NC(=O)CCc1cn(CCN2CCc3ccccc3C2)nn1 | 18 |
| Nc1ccc(-c2cccs2)cc1NC(=O)c1cn(CCc2cccc([N+](=O)[O-])c2)nn1 | 13 |
| Nc1ccc(-c2ccc(F)cc2)cc1NC(=O)CCc1cn(CCC2CCCCC2)nn1 | 2 |
| Nc1ccc(-c2ccc(F)cc2)cc1NC(=O)CCc1cn(C[S+]([O-])c2ccccc2)nn1 (centres undefined) | 17 |
| Nc1ccc(-c2ccsc2)cc1NC(=O)CCc1cn(/C=C/c2ccccc2)nn1 | 2 |
| Nc1ccc(-c2ccsc2)cc1NC(=O)c1cn(-c2ccc(O)cc2)nn1 | 2 |
| Nc1ccc(-c2cccs2)cc1NC(=O)c1ccc(-c2cn(Cc3nc4ccccc4[nH]3)nn2)s1 | 63 |
| Nc1ccc(-c2ccsc2)cc1NC(=O)CCc1cn(CCc2ccc([N+](=O)[O-])cc2)nn1 | 20 |
| Nc1ccc(-c2cccs2)cc1NC(=O)c1cn(CCc2ccccn2)nn1 | 0 |
| Nc1ccc(-c2ccsc2)cc1NC(=O)c1cn(CCCCCCCC(=O)O)nn1 | 10 |
| Nc1ccc(-c2cccnc2)cc1NC(=O)CCc1cn(CCc2ccc([N+](=O)[O-])cc2)nn1 | 3 |
| Nc1ccc(-c2cccs2)cc1NC(=O)c1cccc(-c2cn(-c3ccc(I)cc3)nn2)c1 | 7 |
| Nc1ccc(-c2ccc(F)cc2)cc1NC(=O)CCc1cn(CC(=O)c2ccccc2)nn1 | 19 |
| Nc1ccc(-c2ccsc2)cc1NC(=O)CCc1cn(CCc2ccc(C(F)(F)F)cc2)nn1 | 2 |
| Nc1ccc(-c2cccs2)cc1NC(=O)c1ccc(-c2cn(CC3CCCCC3)nn2)s1 | 0 |
| Nc1ccc(-c2ccsc2)cc1NC(=O)CCc1cn(CCCCCc2ccccc2)nn1 | 5 |
| Nc1ccc(-c2cccs2)cc1NC(=O)c1cn(CCc2ccc([N+](=O)[O-])cc2)nn1 | 17 |
| Nc1ccc(-c2ccccc2)cc1NC(=O)c1cn(CC23CC4CC(CC(C4)C2)C3)nn1 | 0 |

| Structure (SMILES) | inhibition [%] |
| --- | --- |
| Cc1cccc(C)c1NC(=O)Cn1cc(-c2cccc(C(=O)Nc3cc(-c4cccs4)ccc3N)c2)nn1 | 8 |
| Cc1cccc(C)c1NC(=O)Cn1cc(-c2ccc(C(=O)Nc3cc(-c4cccs4)ccc3N)cc2)nn1 | 52 |
| Nc1ccc(-c2ccc(F)cc2)cc1NC(=O)CCc1cn(CCCc2ccccc2)nn1 | 12 |
| Nc1ccc(-c2ccsc2)cc1NC(=O)c1cn(CCc2ccccc2[N+](=O)[O-])nn1 | 2 |
| COc1ccc(Cn2cc(CCC(=O)Nc3cc(-c4ccsc4)ccc3N)nn2)cc1 | 24 |
| Nc1ccc(-c2ccc(F)cc2)cc1NC(=O)c1cn(CC23CC4CC(CC(C4)C2)C3)nn1 | 0 |
| Nc1ccc(-c2cccs2)cc1NC(=O)c1ccc(-c2cn(CCc3ccsc3)nn2)cc1 | 26 |
| Nc1ccc(-c2cccs2)cc1NC(=O)c1cn(CCc2ccccc2[N+](=O)[O-])nn1 | 19 |
| Nc1ccc(-c2cccnc2)cc1NC(=O)CCc1cn(CCc2ccccc2C(F)(F)F)nn1 | 0 |
| Cc1ccccc1CCn1cc(CCC(=O)Nc2cc(-c3cccs3)ccc2N)nn1 | 13 |
| Nc1ccc(-c2cccs2)cc1NC(=O)CCc1cn(CCCCCC(=O)O)nn1 | 6 |
| Nc1ccc(-n2cc(C(=O)Nc3cc(-c4ccsc4)ccc3N)nn2)cc1 | 31 |
| Nc1ccc(-c2cccs2)cc1NC(=O)c1cn(-c2ccc([N+](=O)[O-])cc2)nn1 | 0 |
| Nc1ccc(-c2cccs2)cc1NC(=O)c1cn(-c2ccc(I)cc2)nn1 | 0 |
| Nc1ccc(-c2cccs2)cc1NC(=O)c1ccc(-c2cn(CCc3c[nH]c4ccccc34)nn2)s1 | 38 |
| Nc1ccc(-c2cccs2)cc1NC(=O)CCc1cn(CCc2ccc(C(F)(F)F)cc2)nn1 | 5 |
| Cc1ccc(-n2cc(C(=O)Nc3cc(-c4cccs4)ccc3N)nn2)cc1C | 0 |
| Nc1ccc(-c2cccs2)cc1NC(=O)c1cccc(-c2cn(CCC34CC5CC(CC(C5)C3)C4)nn2)c1 | 9 |
| Nc1ccc(-c2cccs2)cc1NC(=O)c1ccc(-c2cn(CCc3ccccc3C(F)(F)F)nn2)cc1 | 0 |
| Nc1ccc(-c2ccsc2)cc1NC(=O)CCc1cn(CCc2ccccc2C(F)(F)F)nn1 | 0 |
| Nc1ccc(-c2cccs2)cc1NC(=O)c1ccc(-c2cn(CCCc3ccccc3)nn2)s1 | 16 |
| Nc1ccc(-c2cccs2)cc1NC(=O)c1cccc(-c2cn(CCCCCCC(=O)O)nn2)c1 | 30 |
| Cc1ccc(-n2cc(-c3ccc(C(=O)Nc4cc(-c5cccs5)ccc4N)cc3)nn2)cc1C | 0 |
| Nc1ccc(-c2cccs2)cc1NC(=O)CCc1cn(-c2ccc(I)cc2)nn1 | 8 |
| Nc1ccc(-c2ccccc2)cc1NC(=O)CCc1cn(CCC2CCCCC2)nn1 | 0 |

Now from value to compound:

| inhibition [%] | Structure (SMILES) |
| --- | --- |
| 27 | Nc1ccc(-c2ccccc2)cc1NC(=O)c1cn(Cc2ccc(C(=O)O)cc2)nn1 |
| 37 | Nc1ccc(-c2ccc(F)cc2)cc1NC(=O)CCc1cn(CCc2ccccc2)nn1 |
| 60 | Nc1ccc(-c2cccs2)cc1NC(=O)c1ccc(-c2cn(C[S+]([O-])c3ccccc3)nn2)s1 (centres undefined) |
| 0 | Nc1ccc(-c2cccs2)cc1NC(=O)c1ccc(-c2cn(Cc3ccc(Oc4ccccc4)cc3)nn2)s1 |
| 11 | Nc1ccc(-n2cc(C(=O)Nc3cc(-c4ccccc4)ccc3N)nn2)cc1 |
| 0 | Nc1ccc(-c2ccccc2)cc1NC(=O)CCc1cn(Cc2ccc(-c3ccccc3)cc2)nn1 |
| 14 | Nc1ccc(-c2ccc(F)cc2)cc1NC(=O)CCc1cn(Cc2cccc3ccccc23)nn1 |
| 40 | Nc1ccc(-c2cccs2)cc1NC(=O)c1ccc(-c2cn(CCc3ccccc3)nn2)s1 |
| 6 | Nc1ccc(-c2cccs2)cc1NC(=O)c1cccc(-c2cn(C[S+]([O-])c3ccccc3)nn2)c1 (centres undefined) |
| 9 | Nc1ccc(-c2cccs2)cc1NC(=O)c1cn(CCc2ccccc2)nn1 |
| 8 | Nc1ccc(-c2ccc(F)cc2)cc1NC(=O)c1cn(Cc2cccc3ccccc23)nn1 |
| 3 | Nc1ccc(-c2ccccc2)cc1NC(=O)c1cn(/C=C/c2ccccc2)nn1 |
| 0 | Nc1ccc(-c2ccsc2)cc1NC(=O)c1cn(CCc2ccccc2Cl)nn1 |
| 20 | Nc1ccc(-c2ccccc2)cc1NC(=O)CCc1cn(CCc2c[nH]c3ccccc23)nn1 |
| 10 | Nc1ccc(-c2cccs2)cc1NC(=O)c1cccc(-c2cn(/C=C/c3ccccc3)nn2)c1 |
| 0 | Nc1ccc(-c2ccccc2)cc1NC(=O)c1cn(CCCCC(=O)O)nn1 |
| 0 | CCc1ccc(Cn2cc(-c3cccc(C(=O)Nc4cc(-c5cccs5)ccc4N)c3)nn2)cc1 |
| 37 | Nc1ccc(-c2ccc(F)cc2)cc1NC(=O)c1cn(Cc2nc3ccccc3[nH]2)nn1 |
| 0 | Nc1ccc(-c2ccccc2)cc1NC(=O)CCc1cn(-c2ccc(Br)cc2)nn1 |
| 0 | Nc1ccc(-c2cccs2)cc1NC(=O)c1ccc(-c2cn(Cc3ccc(-c4ccccc4)cc3)nn2)s1 |
| 16 | COc1ccc(-n2cc(C(=O)Nc3cc(-c4ccc(F)cc4)ccc3N)nn2)cc1 |
| 9 | Nc1ccc(-c2ccccc2)cc1NC(=O)CCc1cn(CCc2ccc(F)cc2)nn1 |

| inhibition [%] | Structure (SMILES) |
| --- | --- |
| 1 | Nc1ccc(-c2ccc(F)cc2)cc1NC(=O)c1cn(CCCCCc2ccccc2)nn1 |
| 0 | Nc1ccc(-c2ccccc2)cc1NC(=O)c1cn(CCc2ccc(-c3ccccc3)cc2)nn1 |
| 0 | COc1ccc(Cn2cc(-c3cccc(C(=O)Nc4cc(-c5cccs5)ccc4N)c3)nn2)cc1 |
| 0 | Nc1ccc(-c2ccccc2)cc1NC(=O)c1cn(CCC2CCCCC2)nn1 |
| 0 | Nc1ccc(-c2cccs2)cc1NC(=O)c1cccc(-c2cn(-c3ccccc3-c3ccccc3)nn2)c1 |
| 1 | Cc1cccc(CCn2cc(C(=O)Nc3cc(-c4ccccc4)ccc3N)nn2)c1 |
| 14 | Nc1ccc(-c2ccsc2)cc1NC(=O)c1cn(CS(=O)(=O)c2ccccc2)nn1 |
| 19 | COc1ccc(Cn2cc(C(=O)Nc3cc(-c4ccc(F)cc4)ccc3N)nn2)cc1 |
| 0 | Nc1ccc(-c2ccsc2)cc1NC(=O)c1cn(CCc2ccc(F)cc2)nn1 |
| 13 | Nc1ccc(-c2ccccc2)cc1NC(=O)CCc1cn(CCc2ccccc2[N+](=O)[O-])nn1 |
| 16 | Nc1ccc(-c2ccc(F)cc2)cc1NC(=O)c1cn(CCc2ccccn2)nn1 |
| 12 | Nc1ccc(-c2ccccc2)cc1NC(=O)c1cn(CCc2ccccc2)nn1 |
| 17 | Nc1ccc(-c2ccc(F)cc2)cc1NC(=O)c1cn(CCc2ccccc2)nn1 |
| 1 | Nc1ccc(-c2ccccc2)cc1NC(=O)c1cn(Cc2ccc3ccccc3c2)nn1 |
| 0 | CCc1ccc(Cn2cc(C(=O)Nc3cc(-c4ccc(F)cc4)ccc3N)nn2)cc1 |
| 17 | COc1ccc(CCn2cc(CCC(=O)Nc3cc(-c4ccccc4)ccc3N)nn2)cc1 |
| 0 | Nc1ccc(-c2ccc(F)cc2)cc1NC(=O)c1cn(CCc2cccc(F)c2)nn1 |
| 16 | Cc1ccc(CCn2cc(C(=O)Nc3cc(-c4cccs4)ccc3N)nn2)cc1 |
| 0 | Nc1ccc(-c2ccccc2)cc1NC(=O)c1cn(CCc2cccc3ccccc23)nn1 |
| 0 | Nc1ccc(-c2ccccc2)cc1NC(=O)c1cn(CCc2ccccn2)nn1 |
| 0 | Nc1ccc(-c2cccs2)cc1NC(=O)c1cccc(-c2cn(-c3cccc4ccccc34)nn2)c1 |

Source: ChEMBL document CHEMBL5390237, “Discovery of Selective Histone Deacetylase 1 and 2 Inhibitors: Screening of a Focused Library Constructed by Click Chemistry, Kinetic Binding Analysis, and Biological Evaluation” (J Med Chem, 2023)
